Laboratory results reported in ChEMBL document CHEMBL4152222, “Structural insights into serotonin receptor ligands polypharmacology” (Eur J Med Chem, 2018).

Assays:
Homo sapiens [1] = organism: Homo sapiens; test: Selectivity index, ratio of Ki for human 5-HT7B receptor to Ki for human 5-HT6 receptor
[2] = biological target: 5-hydroxytryptamine receptor 6 (Homo sapiens, UniProt P50406); test: Displacement of [3H]-LSD from human 5-HT6 receptor expressed in HEK293 cell membranes after 1 hr by microbeta TopCount analysis
Homo sapiens [3] = organism: Homo sapiens; test: Selectivity index, ratio of Ki for human 5-HT1A receptor to Ki for human 5-HT7B receptor
Homo sapiens [4] = organism: Homo sapiens; test: Selectivity index, ratio of Ki for human 5-HT1A receptor to Ki for human 5-HT6 receptor
[5] = biological target: T1, 5-hydroxytryptamine receptor 1A (Homo sapiens, UniProt P08908); test: Displacement of [3H]-8-OH-DPAT from human 5-HT1A receptor expressed in HEK293 cell membranes after 1 hr by microbeta TopCount analysis
T1 sequence (P08908 whole entry): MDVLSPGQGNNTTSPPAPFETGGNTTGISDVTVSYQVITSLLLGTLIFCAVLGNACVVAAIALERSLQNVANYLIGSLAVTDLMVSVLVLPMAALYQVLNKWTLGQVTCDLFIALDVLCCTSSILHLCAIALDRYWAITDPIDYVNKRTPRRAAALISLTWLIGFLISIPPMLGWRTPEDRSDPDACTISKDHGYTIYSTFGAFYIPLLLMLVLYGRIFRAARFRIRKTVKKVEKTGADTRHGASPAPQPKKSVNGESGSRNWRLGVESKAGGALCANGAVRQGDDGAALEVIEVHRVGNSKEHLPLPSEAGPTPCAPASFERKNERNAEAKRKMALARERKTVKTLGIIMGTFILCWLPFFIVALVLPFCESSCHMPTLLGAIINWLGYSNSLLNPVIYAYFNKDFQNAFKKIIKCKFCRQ

[6] = biological target: 5-hydroxytryptamine receptor 7 (Homo sapiens, UniProt P34969); test: Displacement of [3H]-5-CT from human 5-HT7b receptor expressed in HEK293 cell membranes after 1 hr by microbeta TopCount analysis
Sequence of 5-hydroxytryptamine receptor 7 (P34969 whole entry): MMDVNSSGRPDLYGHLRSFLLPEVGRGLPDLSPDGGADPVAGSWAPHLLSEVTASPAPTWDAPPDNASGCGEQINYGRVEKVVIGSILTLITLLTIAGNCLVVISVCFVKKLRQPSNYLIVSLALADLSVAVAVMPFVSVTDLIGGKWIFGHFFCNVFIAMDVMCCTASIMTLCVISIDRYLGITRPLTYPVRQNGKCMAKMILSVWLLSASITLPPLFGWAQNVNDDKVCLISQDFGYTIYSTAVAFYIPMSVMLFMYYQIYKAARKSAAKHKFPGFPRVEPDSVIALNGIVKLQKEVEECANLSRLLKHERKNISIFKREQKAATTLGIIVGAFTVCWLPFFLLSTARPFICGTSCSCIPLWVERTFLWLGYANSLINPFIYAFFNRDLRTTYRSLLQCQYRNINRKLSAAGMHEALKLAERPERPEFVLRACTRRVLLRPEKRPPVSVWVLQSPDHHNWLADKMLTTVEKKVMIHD

Sequence of 5-hydroxytryptamine receptor 6 (P50406 whole entry): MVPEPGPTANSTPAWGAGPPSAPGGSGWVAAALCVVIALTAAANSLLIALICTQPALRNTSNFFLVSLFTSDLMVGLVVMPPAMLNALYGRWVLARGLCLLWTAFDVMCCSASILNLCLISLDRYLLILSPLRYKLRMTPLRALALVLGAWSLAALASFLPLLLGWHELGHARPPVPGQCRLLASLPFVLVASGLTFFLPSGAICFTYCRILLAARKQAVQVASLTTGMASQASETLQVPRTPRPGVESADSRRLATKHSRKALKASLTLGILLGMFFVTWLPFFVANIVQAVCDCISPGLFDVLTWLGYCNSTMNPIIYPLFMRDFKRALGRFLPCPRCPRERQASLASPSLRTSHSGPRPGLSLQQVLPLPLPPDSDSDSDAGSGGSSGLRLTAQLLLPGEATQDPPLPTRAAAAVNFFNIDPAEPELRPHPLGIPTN

Structure (SMILES) | Ratio Ki (Homo sapiens [1]) | Ki [2] [µM] | Ratio Ki (Homo sapiens [3]) | Ratio Ki (Homo sapiens [4]) | Ki [5] [µM] | Ki [6] [µM]
Cc1ccc(C(CCNC(C)c2ccc(Cl)cc2)c2ccco2)cc1 (configuration not stated) | 3 | 2.5 | 1 | 4 | 9.1 | 8.4
O[C@H](CCN1CCc2onc(-c3ccc(F)c(F)c3)c2C1)c1ccccc1 | 8 | 9 | 5 | 37 | 330 | 71.2
COc1cc(CNCCC2=CCCCC2)ccc1OCc1ccccc1 | 3 | 2.7 | 0.6 | 2 | 4.9 | 8
CCC1(C)CC(CCNCc2ccc(OC)c(OC)c2)(c2ccc(C)cc2)CCO1 (configuration not stated) | 11 | 3.4 | 1 | 11 | 36.8 | 37.2
CC(NCCC(Cc1ccccc1)c1ccco1)c1ccc(Cl)cc1 (configuration not stated) | 3 | 1.4 | 2 | 5 | 7.1 | 3.8
O=C1N(Cc2ccccc2)C(c2ccccc2)=NC1(Nc1ccccn1)C(F)(F)F (configuration not stated) | 44 | 1.9 | 3 | 149 | 284 | 84.5
Cc1ccc(COc2ccc(Br)cc2CNC(C)c2ccccc2)cc1 (configuration not stated) | 0.7 | 5.1 | 54 | 38 | 196 | 3.7
COc1ccc(CNCCC(c2ccccc2)c2ccc3c(c2)OCO3)cc1 (configuration not stated) | 4 | 3.7 | 1 | 4 | 15.6 | 14.1
COc1ccc(CNCCC(c2ccco2)c2ccccc2OC)cc1 (configuration not stated) | 4 | 2.4 | 0.6 | 2 | 6.1 | 10.4
Cc1ccc(C(C)NCCC(c2ccc(F)cc2)c2ccco2)cc1 (configuration not stated) | 7 | 1.8 | 0.5 | 3 | 6.1 | 12.5
Cc1ccc(C(C)(C)CC(C)NCc2ccc(C(F)(F)F)cc2)o1 (configuration not stated) | 1 | 5.8 | 5 | 5 | 31.4 | 6.1
CCC1(C)CC(CCNCc2ccccc2)(c2ccc(C)cc2)CCO1 (configuration not stated) | 2 | 5.6 | 4 | 8 | 41.8 | 10.1
